For 22 compounds, IC50 results are on record in patent publication US20240239775A1, “FXR REGULATOR, PREPARATION METHOD THEREFOR, PHARMACEUTICAL COMPOSITION THEREOF AND USE THEREOF” (QINGDAO RUIJI MEDICAL TECHNOLOGY CO., LTD., priority 2021, published 2024).

Molecules are shown by their SMILES.

One assay deals with T1, FXR (Homo sapiens, UniProt Q96RI1).
T1 construct: 5 μL of 20 nM FXR-LBD Complete Coregulator buffer G; purchased ThermoFisher PV4833
T1 sequence (Q96RI1 262-486 limits assumed): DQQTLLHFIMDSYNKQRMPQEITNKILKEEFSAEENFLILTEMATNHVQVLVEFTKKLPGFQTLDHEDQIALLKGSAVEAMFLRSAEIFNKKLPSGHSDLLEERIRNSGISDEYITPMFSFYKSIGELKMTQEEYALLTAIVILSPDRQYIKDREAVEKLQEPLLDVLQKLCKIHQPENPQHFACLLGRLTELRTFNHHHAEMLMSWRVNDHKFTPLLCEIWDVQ
Kind of assay: FXR antagonist screening by TR-FRET (LanthaScreen TR-FRET FXR co-activation assay kit). The note with it: Table 1.1, FXR antagonistic activity; TR-FRET with CDCA; geometric means of at least two independent runs. Format: biochemical. As for the experimental part: FXR activity was evaluated by time-resolved fluorescence resonance energy transfer (TR-FRET) assay, using LanthaScreen™ TR-FRET FXR co-activation assay kit (ThermoFisher, Cat. PV4833). For agonist screening, 10 μL of Complete Coregulator buffer G containing the corresponding concentration of the compound to be tested, 5 μL of 20 nM FXR-LBD Complete Coregulator buffer G, and 5 μL of 2.0 μM Fluorescein-SRC2-2/20 nM Tb-anti-GST antibody Complete Coregulator buffer G were added to each well of a 384-well black plate (Coring) in sequence. […] Three duplicate wells were set up for each compound, with CDCA as the positive compound and DMSO as the solvent control. For antagonist screening, 5 μL of Complete Coregulator buffer G containing the corresponding concentration of the compound to be tested, 5 μL of 20 nM FXR-LBD Complete Coregulator buffer G, 5 μL of 200 μM CDCA FXR-LBD Complete Coregulator buffer G, and 5 μL of 2.0 μM Fluorescein-SRC2-2/20 nM Tb-anti-GST antibody Complete Coregulator buffer G were added to each well of a 384-well black plate (Coring) in sequence and incubated at room temperature for 10 h. Following operations were the same as those for agonist screening
With `CCOC(=O)c1oc2ccc(S(=O)(=O)N(CCc3ccccc3)Cc3ccccc3)cc2c1C` [Example F27-S8, ethyl 5-(N-benzyl-N-phenethylsulfamoyl)-3-methylbenzofuran-2-carboxylate], the IC50 lay in the range of 50 to 100 µM.

In the case of `CCOC(=O)c1oc2ccc(S(=O)(=O)N(CCc3ccccc3)Cc3cccc4ccccc34)cc2c1C` [Example M4-43, ethyl 3-methyl-5-(N-(naphthalen-1-ylmethyl)-N-phenethylsulfamoyl)benzofuran-2-carboxylate], the IC50 was 50 to 100 µM. On the same count and under the same terms, next, `CCOC(=O)c1oc2ccc(S(=O)(=O)N(CCc3ccccc3)Cc3ccccc3N3CCN(C)CC3)cc2c1C` [Example M10-98, ethyl 3-methyl-5-(N-(2-(4-methylpiperazin-1-yl)benzyl)-N-phenethylsulfamoyl)benzofuran-2-carboxylate]: 50 to 100 µM; `CCOC(=O)c1oc2ccc(S(=O)(=O)N(CCc3ccccc3)Cc3ccccc3N3CCN(C(C)=O)CC3)cc2c1C` [Example M10-100, ethyl 3-methyl-5-(N-(2-(4-acetylpiperazin-1-yl)benzyl)-N-phenethylsulfamoyl)benzofuran-2-carboxylate]: 50 to 100 µM.

The same assay, now with this note: Table 1.2, FXR antagonistic activity; TR-FRET with CDCA; geometric means of at least two independent runs.
For the compound `CCOC(=O)c1oc2ccc(S(=O)(=O)N(CCc3ccccc3)c3ccccc3N3CCN(C(=O)c4ccc(NC(C)=O)cc4)CC3)cc2c1C` [Example M10-109, Ethyl 5-(N-(2-(4-(4-Acetylaminobenzoyl)piperazin-1-yl)phenyl)-N-phenethylsulfamoyl)-3-methyl benzofuran-2-carboxylate], the IC50 is 50 to 100 µM. Consider `Cc1c(C(=O)O)oc2ccc(S(=O)(=O)N(CCc3ccccc3)c3ccccc3N3CCN(C(=O)c4ccc(Br)s4)CC3)cc12` [Example F27-S123, 5-(N-(2-(4-(5-bromothiophene-2-carbonyl)piperazin-1-yl)phenyl)-N-phenethylsulfamoyl)-3-methyl benzofuran-2-carboxylic acid], for which the IC50 is 0.1 to 10 µM.

`CCOC(=O)c1oc2ccc(S(=O)(=O)N(CCc3ccccc3)c3ccccc3N3CCN(C(=O)c4ccc(C#N)cc4)CC3)cc2c1C` [Example M10-111] came in with an IC50 of 50 to 100 µM. Same read-out and setting: next, `CCOC(=O)c1oc2ccc(S(=O)(=O)N(CCc3ccccc3)c3ccccc3N3CCN(C(=O)C(CC)CC)CC3)cc2c1C` [Example M10-145, Ethyl 5-(N-(2-(4-(2-ethylbutyryl)piperazin-1-yl)phenyl)-N-phenethylsulfamoyl)3-methylbenzofuran-2-carboxylate]: 50 to 100 µM; `O=C(O)c1[nH]c2ccc(S(=O)(=O)N(CCc3ccccc3)c3ccccc3N3CCN(C(=O)c4sccc4Br)CC3)cc2c1Cl` [Example F27-S161, 5-(N-(2-(4-(3-bromothiophene-2-carbonyl)piperazin-1-yl)phenyl)-N-phenethylsulfamoyl)-3-chloro-1H-indole-2-carboxylic acid]: 0.1 to 10 µM; `CCOC(=O)c1sc2ccc(S(=O)(=O)N(C)c3ccccc3N3CCN(C(=O)c4sccc4Br)CC3)cc2c1C` [Example M10-182, Ethyl 5-(N-(2-(4-(3-bromothiophene-2-carbonyl)piperazin-1-yl)phenyl)-N-methylsulfamoyl)-3-methylbenzothiophene-2-carboxylate]: 50 to 100 µM. Consider `Cc1c(C(=O)O)sc2ccc(S(=O)(=O)N(CCCc3ccccc3)c3ccccc3N3CCN(C(=O)c4sccc4Br)CC3)cc12` [Example F27-S176, 5-(N-(2-(4-(3-bromothiophene-2-carbonyl)piperazin-1-yl)phenyl)-N-(3-phenylpropyl)sulfamoyl)-3-methylbenzothiophene-2-carboxylic acid], for which the IC50 is 0.1 to 10 µM. As to `Cc1c(C(=O)O)oc2ccc(S(=O)(=O)N(CCc3ccccc3)c3ccccc3N3CCN(C(=O)c4ccsc4)CC3)cc12` [Example F27-S119, 3-methyl-5-(N-phenethyl-N-(2-(4-(thiophene-3-carbonyl)piperazin-1-yl)phenyl)sulfamoyl)benzofuran-2-carboxylic acid], the IC50 fell in the range of 0.1 to 10 µM. The same measure, in the same setting: with `COc1ccc(CCN(c2ccccc2N2CCN(C(=O)c3sccc3Br)CC2)S(=O)(=O)c2ccc3sc(C(=O)O)c(C)c3c2)cc1` [Example F27-S165, 5-(N-(2-(4-(3-bromothiophene-2-formyl)piperazin-1-yl)phenyl)-N-(4-methoxyphenethyl)sulfamoyl)3-methylbenzothiophene-2-carboxylic acid] the figure was 0.1 to 10 µM; with `CCOC(=O)c1oc2ccc(S(=O)(=O)N(CCc3ccccc3)c3ccccc3N3CCN(C(=O)c4ccc(C#Cc5ccccc5)cc4)CC3)cc2c1C` [Example M10-138, Ethyl 5-(N-(2-(4-(4-(phenylethynyl)benzoyl)piperazin-1-yl)phenyl)-N-phenethylsulfamoyl)3-methylbenzofuran-2-carboxylate], 50 to 100 µM; with `Cc1c(C(=O)O)sc2ccc(S(=O)(=O)N(CCc3ccc(C(F)(F)F)cc3)c3ccccc3N3CCN(C(=O)c4sccc4Br)CC3)cc12` [Example F27-S170, 5-(N-(2-(4-(3-bromothiophene-2-carbonyl)piperazin-1-yl)phenyl)-N-(4-(trifluoromethyl)phenethyl)sulfamoyl)-3-methylbenzothiophene-2-carboxylic acid], 0.1 to 10 µM. Same read-out and setting: next, `O=C(O)c1cc2cc(S(=O)(=O)N(CCc3ccccc3)c3ccccc3N3CCN(C(=O)c4sccc4Br)CC3)ccc2s1` [Example F27-S159, 5-(N-(2-(4-(3-bromothiophene-2-carbonyl)piperazin-1-yl)phenyl)-N-phenethylsulfamoyl)benzo[b]thiophene-2-carboxylic acid]: 0.1 to 10 µM; `CCOC(=O)c1oc2cc(S(=O)(=O)N(CCc3ccccc3)c3ccccc3N3CCN(C(=O)c4sccc4Br)CC3)ccc2c1C` [Example M10-163, Ethyl 6-(N-(2-(4-(3-bromothiophene-2-formyl)piperazin-1-yl)phenyl)-N-phenethylsulfamoyl)-3-methylbenzofuran-2-carboxylate]: 50 to 100 µM. Compound `Cc1c(C(=O)O)oc2ccc(S(=O)(=O)N(CCc3ccccc3)c3ccccc3N3CCC4(CCN(C(=O)c5sccc5Br)C4)CC3)cc12` [Example F27-S148] showed a concentration for half-maximal inhibition (IC50) of 0.1 to 10 µM.

`Cc1c(C(=O)O)sc2ccc(S(=O)(=O)N(CCc3ccccc3)c3ccccc3N3CCN(C(=O)c4sccc4Br)CC3)cc12` [Example F27-S158, 5-(N-(2-(4-(3-bromothiophene-2-carbonyl)piperazin-1-yl)phenyl)-N-phenethylsulfamoyl)-3-toluothiophene-2-carboxylic acid] registered an IC50 of 0.1 to 10 µM.

The compound `Cc1c(C(=O)O)oc2ccc(S(=O)(=O)N(CCc3ccccc3)c3ccccc3N3CCN(C(=O)c4ccc(NC(=O)OC(C)(C)C)cc4)CC3)cc12` [Example F27-S113] gave an IC50 of 0.1 to 10 µM. Still for that read-out and setting: with `Cc1c(C(=O)O)oc2ccc(S(=O)(=O)N(CCc3ccccc3)c3ccccc3N3CCN(C(=O)c4ccc(Cl)s4)CC3)cc12` [Example F27-S128, 5-(N-(2-(4-(5-chlorothiophene-2-carbonyl)piperazin-1-yl)phenyl)-N-phenethylsulfamoyl)-3-methyl benzofuran-2-carboxylic acid] the figure was 0.1 to 10 µM; with `C/C=C/C(=O)N1CCN(c2ccccc2N(CCc2ccccc2)S(=O)(=O)c2ccc3oc(C(=O)O)c(C)c3c2)CC1` [Example F27-S120, (E)-5-(N-(2-(4-(but-2-enoyl)piperazin-1-yl)phenyl)-N-phenethylsulfamoyl)-3-methylbenzofuran-2-carboxylic acid], 0.1 to 10 µM.
